“Also recorded” adds a separate entry of the source.
Assays:
[1] = tested on: Tsp-1 and p53 expression in lungs; assay: Tumor-free mice given PC3M-LN4 conditioned media plus peptide; Tsp-1/p53 in tissue by western blot; format: in vivo, C57Bl6 mice; conditions: PC3M-LN4 CM in combination with peptide; Western blot, FIG. 3
Protocol: For tumor-free analysis C57Bl6 mice were treated with 200 uL of PC3M-LN4 media alone or in combination with peptides described above at dose of 30 mg/kg/day for 5 days. After treatment the animals were sacrificed and the lungs were harvested, lysed and analyzed for Tsp-1 and p53 protein levels as described previously (Kang et al).
It was sought to determine whether there was a smaller domain within saposin A that contained the p53/Tsp-1 stimulating activity. […] C57Bl6 mice (5-6 wks old) were injected daily with 300 uL of serum free DMEM, conditioned media (CM) from non-metastatic PC3 cells, CM from metastatic PC3M-LN4 cells and PC3M-LN4 CM plus 30 mg/kg of the pegylated 6 amino acid polypeptide (PEG2000-CDWLPK (SEQ ID NO: 46)) or 30 mg/kg of the pegylated 18 amino acid polypeptide (PEG2000-[…] (SEQ ID NO: 47)). After 9 days the mice were euthanized and the lungs and livers harvested and either fixed in formalin or lysed for Western blot analysis.
Finally, the effect of substituting D-amino acids at different residues of the 4-amino acid peptide was analyzed. By Western blot analysis it was observed that substituting the first and third or second and fourth residues, in combination, had no effect on the Tsp-1 stimulating activity in vitro. These peptides were then tested in the tumor-free animal model described above. The normal 4-amino acid peptide and the D-amino acid substituted peptides were injected in combination with conditioned media from PC3M-LN4 cells in adult C57Bl6 mice for 4 days at a dose of 10 or 30 mg/kg/day via i.p. injection. Mice were sacrificed 24 hours after the treatment on day 4. The lungs of these mice were harvested and analyzed the Tsp-1 expression by Western blot analysis. […]
Methods: 18 C57Bl6 mice were injected with Ac-dWlP-amide (SEQ ID NO: 132) at a dose of 30 mg/kg in a volume of 100 μL via intraperitoneal (i.p) injections in serum starved conditioned media from PC3M-LN4 prostate cancer cells. […] The relative intensity of the Tsp-1 (normalized to β-Actin) bands were determined using a Bio-Rad Chemi-Doc XRS system.

[2] = tested on: PC3M-LN4 prostate cancer cells; assay: Orthotopic PC3M-LN4 prostate tumor model; format: in vivo, SCID mice; conditions: 30 mg/kg/day i.p. from day 26 for 16 days; PBS control
Protocol: C57Bl6 SCID mice were injected with 1×10^6 PC3M-LN4 prostate cancer cells in the prostate gland as described previously (Kang et al). After 26 days the animals were treated with either PBS or peptides corresponding to residues 36-40 or 36-39 of saposin A at a dose of 30 mg/kg/day via intraperitoneal (i.p.) injection. After 16 days of treatment all animals were sacrificed, prostate tumors were weighed and harvested, along with the lungs of animals. Tissues were either fixed in NBF, or lysed and analyzed for Tsp-1 and p53 expression by western blot analysis.
The peptides were then tested for their ability to inhibit tumor growth and metastasis in three models, the PC3M-LN4 prostate cancer model, the B16-B6 melanoma model and the Lewis Lung Carcinoma (LLC) model. 1×10^6 PC3M-LN4 cells were first injected into the prostate gland of SCID mice. After 26 days these mice were treated with either PBS alone or the 4- or 5-amino acid peptide at a dose of 30 mg/kg/day via i.p. injection. The mice were treated for 16 days after which the mice were examined the size of the tumors and the expression of Tsp-1 and p53 in the primary tumors and lungs of the animals. The tumors in animals treated with the 4- and 5-amino acid peptides were, on average, 45% and 40% the size of control animals, respectively (FIG. 6).

[3] = tested on: primary ovarian cancer cells; assay: Intraperitoneal metastatic ovarian cancer model, bioluminescence; format: in vivo, CB-17 SCID mice; conditions: 40 mg/kg QD from day 17; after 30 days
Protocol: For metastatic ovarian cancer cell injections, 5×10^6 viable primary ovarian cancer cells were injected into CB-17 SCID mice intraperitoneally in a volume of 0.1 ml. Tumor growth was monitored by live animal bioluminescence imaging (Xenogen) once per week. For in vivo determination of the metastatic burden, mice were anaesthetized and injected intraperitoneally with 75 mg/kg of D-luciferin (100 uL of 30 mg/mL in PBS). Metastatic growth was monitored over time using bioluminescence imaging performed with mice in a supine position 5 min after D-luciferin injection with a Xenogen IVIS system coupled to Living Image acquisition and analysis software (Xenogen). For BLI plots, photon flux was calculated for each mouse by using the same circular region of interest encompassing the abdomen of the mouse.
To determine whether DWLPK (SEQ ID NO: 4) could inhibit or regress existing ovarian metastases 5×10^6 primary ovarian cancer cells were injected intraperitoneally into SCID mice. After 17 days treatment was initiated with DWLPK (SEQ ID NO: 4) at a dose of 40 mg/kg QD, cisplatin at a dose of 2 mg/kg QOD, a combination of DWLPK (SEQ ID NO: 4) and cisplatin at the same doses, or PBS (control). It was observed that DWLPK (SEQ ID NO: 4) treatment completely regressed the metastases in 11/12 after 30 days and the regressed the metastases in the remaining mice by 99% (FIG. 20).

[4] = tested on: Tsp-1 in white blood cells; assay: Tsp-1 protein in white blood cells of peptide-injected mice, Western blot; format: in vivo; conditions: 5 day I.P. injections, 30 mg/kg
Protocol: Mice were injected with DWLPK (SEQ ID NO: 4) or a scramble peptide using 5 day I.P. injections with 30 mg/kg peptide. White blood cells were isolated, protein was extracted, and a Western blot was performed measuring Tsp-1 protein.

Substance: DWLPK [5-amino acid peptide corresponding to residues 36-40 of saposin A]
- Tsp-1 and p53 expression in the lungs above basal levels [1]: 6 fold
- prostate tumor size relative to control animals [2]: 40%
- mice with completely regressed metastases [3]: 11/12
- regression of the metastases in the remaining mice [3]: 99%
- Tsp-1 protein in white blood cells [4]: upregulated; also recorded: increased Tsp-1 expression
